Reference: patent publication US8853424B2 (Japan Science and Technology Agency, priority 2008, dated 2014)

Legend:
transglutaminase (TGase) = assay: Measurement of TG (TGase inhibitory activity, monodansyl cadaverine / N,N-dimethylcasein fluorescence, FDSS 3000); type: biochemical
Description: For example, the method described in the Example can be performed.
The compound of the present invention (10 mM, 1 μL) was taken in a 96-well plate (Nunc, 96 Well Black Plate with Clear Bottom), an enzyme reaction solution (100 mM HEPES-NaOH, pH 7.5, 1 mM CaCl2, 20 μM monodansyl cadaverine, 0.05 mg/mL N,N-dimethylcasein, 5 μg/mL TGase) (0.1 ml) was added and the mixture was sufficiently mixed without making foams. The mixture was set on a fluorescence drug screening system FDSS 3000 (Hamamatsu Photonics K.K.), and changes in the fluorescence wavelength per unit time at 340 nm were measured, based on which the TGase inhibitory activity of the compound of the present invention was calculated. As a control, change in the fluorescence when 1 μL of DMSO (dimethyl sulfoxide) was added instead of the compound of the present invention was taken as 100, and TG50 was when the activity decreased to half due to the compound of the present invention.

[1] = test system: Truncated N-terminal huntington 150 Q-EGFP-Neuron 2a cells; assay: Measurement of x-Fold (polyglutamine aggregation inhibitory activity); type: cell-based
Description: In the present invention, the polyglutamine aggregation inhibitory activity (x-Fold) can be measured, for example, by the method described in the Example.
The number of the aggregated cells, and the total number of cells were counted by Array Scan V T1 (manufactured by Cellomics, Pittuburg, USA), and the ratio of the aggregated cells to the total number of cells was determined (x-Fold). […]

[2] = TGase activity with compound (10 mM, 1 μL in 0.1 ml enzyme reaction solution), DMSO control taken as 100
[3] = ratio of aggregated cells to total number of cells, compound 20 μM, 20 hr, almost 1 without compound, smaller = stronger inhibition
[4] = TGase inhibitory activity measurement, unit not given
[5] = polyglutamine aggregation, Truncated N-terminal huntington 150 Q-EGFP-Neuron 2a cells
[6] = TGase inhibitory activity value, Table 1
[7] = polyglutamine aggregation inhibitory activity, Table 1

Row | TGase activity remaining (% of DMSO control = 100) (transglutaminase (TGase); [2]) | Molecule | x-Fold [1, 3] | x-Fold [1, 7] | also measured
1 | 76 | CN(C)CCOB(c1ccc(C(F)(F)F)cc1)c1ccc(C(F)(F)F)cc1 [Example 69, 2-dimethylaminoethyl bis(4-trifluoromethylphenyl)borinate] | 1.02 |  | TGase activity remaining (% of DMSO control = 100) (transglutaminase (TGase); TGase inhibitory activity value, Table 1, listed as 5034): 76; x-Fold ([1]; polyglutamine aggregation inhibitory activity, Table 1, listed as 5034): 1.02
2 | 71 | c1ccc(B(OCCN2CCCCC2)c2cccc(COCc3cccc(B(OCCN4CCCCC4)c4ccccc4)c3)c2)cc1 [Example 466, bis(3,3′-(phenyl-1-piperidylethoxyboryl)benzyl)ether] | 1.04 |  | TGase activity remaining (% of DMSO control = 100) (transglutaminase (TGase); [4]): 71; x-Fold [1, 5]: 1.04
3 | 104 | di(3-chloro-4-methylphenyl)(2,6-diaminopimelinate-O,N)borane [Example 286] | 0.93 | 0.93 | TGase activity remaining (% of DMSO control = 100) (transglutaminase (TGase); [6]): 104
4 | 91 | CNCCOB(c1ccc(COCc2ccc(B(OCCNC)c3ccc(F)c(F)c3)cc2)cc1)c1ccc(F)c(F)c1 [Example 417, bis(4,4′-(3,4-difluorophenyl-N-methylaminoethoxyboryl)benzyl)ether] | 1.01 |  | TGase activity remaining (% of DMSO control = 100) (transglutaminase (TGase); [4]): 91; x-Fold [1, 5]: 1.01
5 | 61 | c1ccc(CNCCOB(c2ccccc2)c2cccc3ccccc23)cc1 [Example 204, phenyl naphthyl benzylaminoethylborinate] | 0.79 | 0.79 | TGase activity remaining (% of DMSO control = 100) (transglutaminase (TGase); [6]): 61
6 | 124 | NC(=O)CC[C@H](N)C(=O)OB(c1ccc(Cl)c(F)c1)c1ccc(Cl)c(F)c1 [Example 96, di(3-fluoro-4-chlorophenyl)(glutaminate-O,N)borane] | 0.86 | 0.86 | TGase activity remaining (% of DMSO control = 100) (transglutaminase (TGase); [6]): 124
7 | 89 | Cc1cc(B(OCCN)c2ccccc2)cc(B(OCCN)c2ccccc2)c1 [Example 357, 3,5-di(phenylaminoethoxyboryl)toluene] | 1.03 | 1.03 | TGase activity remaining (% of DMSO control = 100) (transglutaminase (TGase); [6]): 89
8 | 121 | Cc1ccc(B(O)c2ccc(Oc3ccc(B(O)c4ccc(C)c(Cl)c4)cc3)cc2)cc1Cl [Example 251, bis(3-chloro-4-methylphenyl hydroxyborylphenyl)ether] | 0.83 |  | 
9 | 114 | NCCOB(c1ccc(COCc2ccc(B(OCCN)c3ccc(F)c(F)c3)cc2)cc1)c1ccc(F)c(F)c1 [Example 416, bis(4,4′-(3,4-difluorophenyl-aminoethoxyboryl)benzyl)ether] | 0.92 |  | TGase activity remaining (% of DMSO control = 100) (transglutaminase (TGase); [4]): 114; x-Fold [1, 5]: 0.92
10 | 101 | OB(c1ccc(F)cc1)c1cccc(COCc2cccc(B(O)c3ccc(F)cc3)c2)c1 [Example 336, bis(3-(4-fluorophenylhydroxyboryl)benzyl)ether] | 1.02 | 1.02 | TGase activity remaining (% of DMSO control = 100) (transglutaminase (TGase); [6]): 101
11 | 109 | Cc1ccc(B(OCC2CCCCN2C)c2ccc(C)c(Cl)c2)cc1Cl (stereo not shown) [Example 163, di(3-chloro-4-methylphenyl)N-methylpiperidinomethylborinate] | 1.00 |  | 
12 | 106 | COc1ccc(C(OB(c2ccccc2)c2ccc(COc3ccc(B(OC(c4ccc(OC)cc4)c4ccccn4)c4ccccc4)cc3)cc2)c2ccccn2)cc1 (stereo not shown) [Example 430, 4-(phenyl-p-methoxyphenyl-2-pyridylmethoxyboryl)-phenyl 4′-(phenyl-p-methoxyphenyl-2-pyridylmethoxyboryl)benzylether] | 1.03 |  | TGase activity remaining (% of DMSO control = 100) (transglutaminase (TGase); [4]): 106; x-Fold [1, 5]: 1.03
13 | 102 | FC(F)(F)c1ccc(C(OB(c2ccccc2)c2ccc(COCc3ccc(B(OC(c4ccc(C(F)(F)F)cc4)c4ccccn4)c4ccc(COCc5ccc(B(OC(c6ccc(C(F)(F)F)cc6)c6ccccn6)c6ccccc6)cc5)cc4)cc3)cc2)c2ccccn2)cc1 (stereo not shown) [Example 192, bis((4,4′-phenyl 2-pyridyl-4-trifluoromethylphenylmethoxyboryl)benzyloxybenzyl) 2-pyridyl-4-trifluoromethyl phenylmethoxyborane] | 0.95 | 0.95 | TGase activity remaining (% of DMSO control = 100) (transglutaminase (TGase); [6]): 102
14 | 98 | NCCC(N)C(=O)OB(c1ccccc1)c1ccccc1 (stereo not shown) [Example 280, diphenyl(2,4-diaminolacetic acid)borane] | 0.88 |  | TGase activity remaining (% of DMSO control = 100) (transglutaminase (TGase); TGase inhibitory activity value, Table 1, listed as 897): 98; x-Fold ([1]; polyglutamine aggregation inhibitory activity, Table 1, listed as 897): 0.88
15 | 118 | c1ccc(B(OC2CCCNC2)c2ccc(Oc3ccc(B(OC4CCCNC4)c4ccccc4)cc3)cc2)cc1 (stereo not shown) [Example 431, bis(4,4′-(phenyl-3-piperidyloxyboryl)phenyl)ether] | 1.02 | 0.57 | 
16 |  | NCCOB(c1ccc(Oc2ccccc2)cc1)c1ccc(Oc2ccc(B(OCCN)c3ccc(Oc4ccccc4)cc3)cc2)cc1 [Example 398, bis(4,4′-(phenoxyphenyl-aminoethoxyboryl)phenyl)ether] | 0.88 |  | x-Fold [1, 5]: 0.88

Row | TGase activity remaining (% of DMSO control = 100) (transglutaminase (TGase); [2]) | Molecule | x-Fold [1, 3] | x-Fold [1, 7] | also measured
17 |  | OB(c1ccccc1)c1cccc(COCc2ccccc2B(O)c2ccccc2)c1 [Example 124, (2-phenylhydroxyborylbenzyl)(3-(phenylhydroxyboryl)benzyl)ether] | 0.96 |  | x-Fold ([1]; polyglutamine aggregation inhibitory activity, Table 1, listed as 656): 0.96
18 |  | OB(c1cccs1)c1cccs1 [Example 253] | 1.11 |  | 
19 |  | OB(c1ccc(C(F)(F)F)cc1)c1ccc(C(F)(F)F)cc1 [Example 230, di(trifluoromethylphenyl)borinic acid] | 1.03 |  | x-Fold ([1]; polyglutamine aggregation inhibitory activity, Table 1, listed as 4138): 1.03
20 |  | Cc1ccc(B(OCCN(C)C)c2ccc(C)c(Cl)c2)cc1Cl [Example 207, di(3-chloro-4-methylphenyl)dimethylaminoethylborinate] | 0.91 | 0.91 | 
21 |  | NC(COB(c1ccccc1)c1ccccc1)Cc1ccccc1 [Example 213, diphenyl(S) 2-benzyl-2-aminoethyl borinate] | 1.00 |  | x-Fold ([1]; polyglutamine aggregation inhibitory activity, Table 1, listed as 3075): 1.00
22 |  | Cc1ccc(Cl)cc1B(OCCN)c1cc(Cl)ccc1C [Example 166, di(3-chloro-6-methylphenyl)aminoethylborinate] | 0.70 |  | 
23 |  | OB(O)c1cccc2ccccc12 [Example 324, naphthaleneboronic acid] | 0.76 | 0.76 | 
24 |  | FC(F)(F)c1ccc(C(OB(c2ccccc2)c2cc(B(OC(c3ccc(C(F)(F)F)cc3)c3ccccn3)c3ccccc3)cc(B(OC(c3ccc(C(F)(F)F)cc3)c3ccccn3)c3ccccc3)c2)c2ccccn2)cc1 (stereo not shown) [Example 132, 1,3,5-tri(2-pyridyl-4-trifluoromethylphenylmethoxyphenylboryl)benzene] | 0.95 | 0.95 | 
25 |  | NCC(=O)OB(c1ccccc1)c1ccc(Oc2ccc(B(OC(=O)CN)c3ccccc3)cc2)cc1 [Example 169, di((phenylglycine-O,N boryl)phenyl)ether] | 0.78 |  | 
26 |  | NC(COB(c1ccccc1)c1ccccc1)Cc1ccccc1 [Example 212, diphenyl(R) 2-benzyl-2-aminoethyl borinate] | 0.75 |  | x-Fold ([1]; polyglutamine aggregation inhibitory activity, Table 1, listed as 3073): 0.75
27 |  | Cc1ccc(Cl)cc1B(OCCNCc1ccccc1)c1cc(Cl)ccc1C [Example 164, di(3-chloro-6-methylphenyl)benzylaminoethylborinate] | 0.67 |  | 
28 |  | NCCOB(c1ccccc1)c1cccc(COCCc2ccccc2B(OCCN)c2ccccc2)c1 [Example 369] | 1.10 | 1.10 | 
29 |  | CN(C)CCOB(c1ccccc1)c1cccc(COCc2cccc(B(OCCN(C)C)c3ccccc3)c2)c1 [Example 172, bis(3,3′(phenyldimethylaminoethoxyboryl)benzyl)ether] | 1.22 |  | x-Fold ([1]; polyglutamine aggregation inhibitory activity, Table 1, listed as 2024): 1.22
30 |  | Cc1ccc(B(OCC(N)Cc2ccccc2)c2ccc(C)c(Cl)c2)cc1Cl (stereo not shown) [Example 208, di(3-chloro-4-methylphenyl)-2-benzyl-2-aminoethylborinate] | 0.67 | 0.67 | 
31 |  | Cc1ccc(B(OC(=O)C(N)CC(N)=O)c2ccc(C)c(Cl)c2)cc1Cl (stereo not shown) [Example 448] | 0.95 |  | 
